Test results reported in ChEMBL document CHEMBL5696442, “Discovery of type II inhibitors of TGFβ-activated kinase 1 (TAK1) and mitogen-activated protein kinase kinase kinase kinase 2 (MAP4K2)” (J Med Chem, 2015).
Activity calls are given as the source filed them. The rule behind the calls is not given here.

Columns and labels:
[1] = target: Ribosomal protein S6 kinase beta-1 (Homo sapiens) (UniProt P23443); assay: Inhibition of S6K1 (unknown origin) at 1 uM by Ambit Kinomescan binding assay relative to control
Sequence of Ribosomal protein S6 kinase beta-1 (Homo sapiens) (P23443 whole entry, looked up): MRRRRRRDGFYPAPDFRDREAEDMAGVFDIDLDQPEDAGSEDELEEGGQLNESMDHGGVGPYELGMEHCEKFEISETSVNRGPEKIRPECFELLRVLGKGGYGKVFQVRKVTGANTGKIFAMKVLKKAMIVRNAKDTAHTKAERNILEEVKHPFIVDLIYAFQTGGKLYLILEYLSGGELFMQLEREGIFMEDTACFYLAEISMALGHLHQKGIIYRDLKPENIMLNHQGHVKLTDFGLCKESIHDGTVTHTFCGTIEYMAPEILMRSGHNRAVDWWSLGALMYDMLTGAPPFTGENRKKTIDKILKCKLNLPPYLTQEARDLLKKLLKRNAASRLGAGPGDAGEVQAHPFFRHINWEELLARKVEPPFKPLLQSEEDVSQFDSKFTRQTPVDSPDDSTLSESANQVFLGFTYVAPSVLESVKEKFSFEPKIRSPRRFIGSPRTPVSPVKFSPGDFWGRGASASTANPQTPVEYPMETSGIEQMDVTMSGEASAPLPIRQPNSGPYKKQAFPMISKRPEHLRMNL

[2] = target: Cyclin-dependent kinase 18 (Homo sapiens) (UniProt Q07002); assay: Inhibition of PCTAIRE3 Lys1 labeling site harbouring SKLTENLVALKEIRLEHEEGAPCTAIR in human A-375 cells at 0.05 uM by KiNativ Profiling analysis relative to control; type: cell-based
Sequence of Cyclin-dependent kinase 18 (Homo sapiens) (Q07002 whole entry): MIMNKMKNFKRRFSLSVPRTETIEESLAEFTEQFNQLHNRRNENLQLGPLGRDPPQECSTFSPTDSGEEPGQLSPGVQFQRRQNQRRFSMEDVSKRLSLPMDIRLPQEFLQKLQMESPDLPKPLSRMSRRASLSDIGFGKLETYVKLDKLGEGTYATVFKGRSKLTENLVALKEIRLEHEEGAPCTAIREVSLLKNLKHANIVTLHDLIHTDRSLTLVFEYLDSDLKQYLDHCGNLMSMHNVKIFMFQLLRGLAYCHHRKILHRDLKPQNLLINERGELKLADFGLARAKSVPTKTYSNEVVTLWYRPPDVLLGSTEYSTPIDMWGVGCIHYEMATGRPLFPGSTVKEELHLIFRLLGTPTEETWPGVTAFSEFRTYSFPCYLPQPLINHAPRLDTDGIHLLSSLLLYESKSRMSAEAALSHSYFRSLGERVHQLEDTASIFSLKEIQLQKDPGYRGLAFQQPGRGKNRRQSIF

[3] = target: Tyrosine-protein kinase ABL2 (Homo sapiens, UniProt P42684); assay: Inhibition of ABL2 (unknown origin) at 1 uM by Ambit Kinomescan binding assay relative to control; values are per cent of control
Sequence of Tyrosine-protein kinase ABL2 (P42684 whole entry): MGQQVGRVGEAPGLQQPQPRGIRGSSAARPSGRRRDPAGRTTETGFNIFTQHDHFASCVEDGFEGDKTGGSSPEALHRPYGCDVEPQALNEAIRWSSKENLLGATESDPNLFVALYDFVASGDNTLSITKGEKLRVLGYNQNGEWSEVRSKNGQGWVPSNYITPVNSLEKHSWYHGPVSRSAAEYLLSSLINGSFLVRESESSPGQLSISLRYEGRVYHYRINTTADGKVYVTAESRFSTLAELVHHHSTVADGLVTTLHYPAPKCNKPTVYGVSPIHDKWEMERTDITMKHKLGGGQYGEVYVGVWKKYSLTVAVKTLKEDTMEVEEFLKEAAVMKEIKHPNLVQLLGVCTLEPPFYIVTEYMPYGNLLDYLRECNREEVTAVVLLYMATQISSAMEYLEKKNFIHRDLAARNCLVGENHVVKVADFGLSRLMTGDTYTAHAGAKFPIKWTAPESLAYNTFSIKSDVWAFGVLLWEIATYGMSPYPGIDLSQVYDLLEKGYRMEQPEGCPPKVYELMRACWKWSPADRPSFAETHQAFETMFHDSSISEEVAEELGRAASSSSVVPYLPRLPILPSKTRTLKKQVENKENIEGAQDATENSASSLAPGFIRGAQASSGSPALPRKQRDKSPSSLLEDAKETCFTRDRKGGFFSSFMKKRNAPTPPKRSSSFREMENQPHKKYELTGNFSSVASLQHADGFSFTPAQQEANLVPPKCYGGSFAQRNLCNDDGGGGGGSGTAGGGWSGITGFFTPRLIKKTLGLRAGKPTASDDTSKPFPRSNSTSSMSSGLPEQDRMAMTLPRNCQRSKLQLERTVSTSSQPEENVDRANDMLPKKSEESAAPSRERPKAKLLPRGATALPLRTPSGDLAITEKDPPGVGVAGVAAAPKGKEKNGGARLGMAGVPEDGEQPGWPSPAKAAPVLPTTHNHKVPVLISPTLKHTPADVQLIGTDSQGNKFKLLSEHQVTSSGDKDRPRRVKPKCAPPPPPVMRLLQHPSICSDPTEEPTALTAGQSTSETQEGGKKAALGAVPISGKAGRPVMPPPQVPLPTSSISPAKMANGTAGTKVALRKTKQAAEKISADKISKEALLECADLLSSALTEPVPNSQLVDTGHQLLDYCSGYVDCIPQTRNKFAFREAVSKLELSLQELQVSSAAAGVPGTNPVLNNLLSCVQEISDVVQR

[4] = system: Tyrosine-protein kinase ABL1 (Homo sapiens), P00519 [H396P]; assay: Inhibition of ABL1 H396P mutant (unknown origin) at 10 uM by Ambit Kinomescan binding assay relative to control
[5] = target: T1, Serine/threonine-protein kinase STK11 (Homo sapiens) (UniProt Q15831); assay: Inhibition of LKB1 (unknown origin) at 10 uM by Ambit Kinomescan binding assay
T1 sequence (whole entry): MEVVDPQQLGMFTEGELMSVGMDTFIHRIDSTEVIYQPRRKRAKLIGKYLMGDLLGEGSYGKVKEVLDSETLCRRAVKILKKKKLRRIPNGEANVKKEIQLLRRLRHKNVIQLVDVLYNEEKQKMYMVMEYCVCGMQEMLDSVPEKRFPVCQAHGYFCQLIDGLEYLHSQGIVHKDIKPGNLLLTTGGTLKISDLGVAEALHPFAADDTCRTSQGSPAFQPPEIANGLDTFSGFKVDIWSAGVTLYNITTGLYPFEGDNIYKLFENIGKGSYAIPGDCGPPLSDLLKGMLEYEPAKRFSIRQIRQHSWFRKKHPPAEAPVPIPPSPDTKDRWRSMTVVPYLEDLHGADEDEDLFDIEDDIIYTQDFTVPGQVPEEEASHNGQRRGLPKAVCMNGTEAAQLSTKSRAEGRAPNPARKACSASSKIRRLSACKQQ

[6] = target: Serine/threonine-protein kinase RIO2 (Homo sapiens) (UniProt Q9BVS4); assay: Inhibition of RIOK2 (unknown origin) at 10 uM by Ambit Kinomescan binding assay
Sequence of Serine/threonine-protein kinase RIO2 (Homo sapiens) (Q9BVS4 whole entry, looked up): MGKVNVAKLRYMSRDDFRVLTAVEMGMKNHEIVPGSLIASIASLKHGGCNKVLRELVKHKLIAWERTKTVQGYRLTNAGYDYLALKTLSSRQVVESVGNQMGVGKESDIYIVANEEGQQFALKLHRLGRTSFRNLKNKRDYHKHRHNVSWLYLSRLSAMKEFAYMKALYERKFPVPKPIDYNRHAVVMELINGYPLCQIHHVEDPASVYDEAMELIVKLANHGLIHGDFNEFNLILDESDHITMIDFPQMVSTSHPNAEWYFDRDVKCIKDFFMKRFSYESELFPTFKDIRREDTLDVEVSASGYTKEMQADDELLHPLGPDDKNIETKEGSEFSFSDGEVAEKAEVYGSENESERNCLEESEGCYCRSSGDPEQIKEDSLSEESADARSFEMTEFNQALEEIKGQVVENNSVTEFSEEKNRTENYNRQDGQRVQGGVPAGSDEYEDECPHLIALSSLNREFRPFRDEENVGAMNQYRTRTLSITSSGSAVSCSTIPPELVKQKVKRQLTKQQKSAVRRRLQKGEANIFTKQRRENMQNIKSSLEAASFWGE

[7] = target: Serine/threonine-protein kinase ATR (Homo sapiens) (UniProt Q13535); assay: Inhibition of ATR ATP labeling site in human A-375 cells at 0.5 uM by KiNativ Profiling analysis relative to control; type: cell-based
[8] = target: T2, Dual specificity mitogen-activated protein kinase kinase 6 (Homo sapiens) (UniProt P52564); assay: Inhibition of MAP2K6 Lys1 labeling site in human A-375 cells at 0.05 uM by KiNativ Profiling analysis relative to control; type: cell-based
T2 sequence (whole entry): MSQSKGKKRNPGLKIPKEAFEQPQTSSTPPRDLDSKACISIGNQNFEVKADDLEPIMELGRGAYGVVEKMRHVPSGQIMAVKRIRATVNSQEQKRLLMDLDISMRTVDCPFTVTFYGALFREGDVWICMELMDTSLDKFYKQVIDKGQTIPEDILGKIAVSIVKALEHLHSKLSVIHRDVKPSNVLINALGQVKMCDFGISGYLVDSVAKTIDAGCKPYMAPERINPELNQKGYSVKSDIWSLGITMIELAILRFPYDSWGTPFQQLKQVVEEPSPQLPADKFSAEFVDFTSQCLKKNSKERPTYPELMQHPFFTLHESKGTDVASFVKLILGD

[9] = target: Proto-oncogene tyrosine-protein kinase Src (Homo sapiens, UniProt P12931); assay: Inhibition of SRC ACT labeling site in human Huh-7 cells at 1 uM by KiNativ Profiling analysis relative to control; type: cell-based
Sequence of Proto-oncogene tyrosine-protein kinase Src (P12931 2-536 limits assumed): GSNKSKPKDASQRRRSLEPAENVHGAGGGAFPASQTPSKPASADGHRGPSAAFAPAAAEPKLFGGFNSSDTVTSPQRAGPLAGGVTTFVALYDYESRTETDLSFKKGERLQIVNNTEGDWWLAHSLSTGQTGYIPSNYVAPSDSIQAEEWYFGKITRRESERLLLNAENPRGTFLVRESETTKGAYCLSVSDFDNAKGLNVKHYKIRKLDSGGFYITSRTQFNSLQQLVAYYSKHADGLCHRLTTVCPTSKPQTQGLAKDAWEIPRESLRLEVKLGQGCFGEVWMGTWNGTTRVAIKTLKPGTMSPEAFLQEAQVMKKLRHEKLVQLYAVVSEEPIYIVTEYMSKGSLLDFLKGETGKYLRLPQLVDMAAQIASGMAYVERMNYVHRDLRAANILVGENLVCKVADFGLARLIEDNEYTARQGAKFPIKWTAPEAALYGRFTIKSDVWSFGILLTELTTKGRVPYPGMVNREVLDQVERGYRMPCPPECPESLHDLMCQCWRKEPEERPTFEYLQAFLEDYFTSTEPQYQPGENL

[10] = target: Epidermal growth factor receptor (Homo sapiens) (UniProt P00533); assay: Inhibition of EGFR Lys1 labeling site harbouring IPVAIKELR in human Huh-7 cell lysate at 1 uM by KiNativ Profiling analysis relative to control; type: subcellular
Sequence of Epidermal growth factor receptor (Homo sapiens) (P00533 whole entry): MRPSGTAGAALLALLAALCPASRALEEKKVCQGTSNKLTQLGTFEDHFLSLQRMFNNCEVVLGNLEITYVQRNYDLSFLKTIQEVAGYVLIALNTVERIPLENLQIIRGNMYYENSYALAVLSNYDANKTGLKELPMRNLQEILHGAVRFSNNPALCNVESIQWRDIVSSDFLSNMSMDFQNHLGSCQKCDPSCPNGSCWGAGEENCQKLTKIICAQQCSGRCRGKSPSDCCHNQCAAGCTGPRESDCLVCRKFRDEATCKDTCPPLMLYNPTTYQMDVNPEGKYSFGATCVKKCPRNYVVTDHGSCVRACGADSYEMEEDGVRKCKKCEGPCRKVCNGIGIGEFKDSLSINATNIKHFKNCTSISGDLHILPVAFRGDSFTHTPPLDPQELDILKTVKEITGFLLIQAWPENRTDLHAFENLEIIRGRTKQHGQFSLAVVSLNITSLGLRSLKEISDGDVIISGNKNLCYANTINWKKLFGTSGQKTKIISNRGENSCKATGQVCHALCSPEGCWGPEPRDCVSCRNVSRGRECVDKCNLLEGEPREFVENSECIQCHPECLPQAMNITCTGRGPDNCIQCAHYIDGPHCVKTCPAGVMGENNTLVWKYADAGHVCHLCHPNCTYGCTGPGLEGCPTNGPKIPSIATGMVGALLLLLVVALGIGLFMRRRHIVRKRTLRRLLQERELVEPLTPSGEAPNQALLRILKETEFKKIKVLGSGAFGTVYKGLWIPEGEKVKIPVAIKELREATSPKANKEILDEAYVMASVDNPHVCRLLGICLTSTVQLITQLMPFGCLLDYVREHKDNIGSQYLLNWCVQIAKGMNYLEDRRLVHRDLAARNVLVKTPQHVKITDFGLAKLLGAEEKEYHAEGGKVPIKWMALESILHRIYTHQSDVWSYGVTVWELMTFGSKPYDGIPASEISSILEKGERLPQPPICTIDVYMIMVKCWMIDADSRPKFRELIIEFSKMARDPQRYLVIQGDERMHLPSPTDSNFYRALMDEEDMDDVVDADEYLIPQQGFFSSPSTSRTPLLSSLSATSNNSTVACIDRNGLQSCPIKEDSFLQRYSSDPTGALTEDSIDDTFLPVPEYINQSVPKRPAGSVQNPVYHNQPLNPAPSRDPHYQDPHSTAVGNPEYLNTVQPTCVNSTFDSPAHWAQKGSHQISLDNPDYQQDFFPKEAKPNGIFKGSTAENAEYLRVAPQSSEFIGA

[11] = target: STE20/SPS1-related proline-alanine-rich protein kinase (Homo sapiens) (UniProt Q9UEW8); assay: Inhibition of STLK3 Lys2 labeling site in human Huh-7 cell lysate at 1 uM by KiNativ Profiling analysis relative to control; type: subcellular
[12] = target: T3, Serine/threonine-protein kinase greatwall (Homo sapiens) (UniProt Q96GX5); assay: Inhibition of MASTL Lys2 labeling site in human Huh-7 cells at 1 uM by KiNativ Profiling analysis relative to control; type: cell-based
T3 sequence (whole entry): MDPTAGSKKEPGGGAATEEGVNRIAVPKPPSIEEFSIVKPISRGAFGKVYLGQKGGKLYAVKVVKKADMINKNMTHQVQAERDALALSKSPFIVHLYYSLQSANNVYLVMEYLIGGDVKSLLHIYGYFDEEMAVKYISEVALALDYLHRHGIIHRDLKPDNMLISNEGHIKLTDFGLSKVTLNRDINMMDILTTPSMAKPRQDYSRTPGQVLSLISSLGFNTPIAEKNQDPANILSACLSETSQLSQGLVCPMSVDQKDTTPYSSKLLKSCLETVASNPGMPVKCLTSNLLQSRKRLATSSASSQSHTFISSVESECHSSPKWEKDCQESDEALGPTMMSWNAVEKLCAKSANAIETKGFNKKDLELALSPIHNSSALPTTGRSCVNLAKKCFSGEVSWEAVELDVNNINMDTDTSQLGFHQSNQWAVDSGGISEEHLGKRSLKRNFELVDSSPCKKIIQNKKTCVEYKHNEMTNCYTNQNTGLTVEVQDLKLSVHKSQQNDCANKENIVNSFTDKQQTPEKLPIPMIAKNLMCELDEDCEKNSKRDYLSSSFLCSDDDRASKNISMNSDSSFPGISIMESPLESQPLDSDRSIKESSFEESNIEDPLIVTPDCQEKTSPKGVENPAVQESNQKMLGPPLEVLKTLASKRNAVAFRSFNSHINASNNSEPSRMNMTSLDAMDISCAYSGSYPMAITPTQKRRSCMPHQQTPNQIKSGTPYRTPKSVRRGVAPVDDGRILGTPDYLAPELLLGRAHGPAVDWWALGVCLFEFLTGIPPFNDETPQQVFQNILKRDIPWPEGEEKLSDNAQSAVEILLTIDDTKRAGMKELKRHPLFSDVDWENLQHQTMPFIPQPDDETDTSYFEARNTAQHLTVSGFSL

Q: What does the source list for CCN1CCN(Cc2ccc(NC(=O)c3ccc(C)c(/C=C/c4cnc5[nH]ccc5c4OC)c3)cc2C(F)(F)F)CC1?
A: inhibition [1]: 46%; inhibition [2]: 2.7%; % of control [3]: 0.7%

Q: For CCN1CCN(Cc2ccc(NC(=O)c3ccc(C)c(Oc4ccnc5[nH]ccc45)c3)cc2C(F)(F)F)CC1, which inhibition [4] is on record?
A: 0.7%

Q: And the inhibition [5]?
A: inactive

Q: And the inhibition [6]?
A: inactive

Q: What about the inhibition [7] of the same compound?
A: 5.1%

Q: What about the inhibition [8] of the same compound?
A: 4%

Q: What about the inhibition [9] of the same compound?
A: -0.3%

Q: How did the inhibition [10] turn out when CNc1cc(Oc2cc(C(=O)Nc3cc(N4CCN(C)CC4)cc(C(F)(F)F)c3)ccc2C)ncn1 was run?
A: 4.5%

Q: What about the inhibition [11] of the same compound?
A: 9.8%

Q: What about the inhibition [12] of the same compound?
A: -7.3%
